Experimental findings from patent US20130012451A1, “COMPOSITIONS AND METHODS FOR INHIBITING MMP-9-MEDIATED CELL MIGRATION” (The Research Foundation of State University of New York, priority 2009, published 2013) are described below.

“Also recorded” adds a separate entry of the source. Like-named read-outs stand apart in the source and are kept apart here. Where no end group is shown, it is not given here.

One assay deals with T1, CD44/MMP-9 heterodimer (Homo sapiens, UniProt P16070).
T1 construct: The MMP-9 cDNA containing the open reading frame of MMP-9 was amplified by a PCR approach; expressed in transfected cells; host or cells: COS-1 monkey kidney epithelial cells
T1 sequence (P16070 21-742, one chain of several): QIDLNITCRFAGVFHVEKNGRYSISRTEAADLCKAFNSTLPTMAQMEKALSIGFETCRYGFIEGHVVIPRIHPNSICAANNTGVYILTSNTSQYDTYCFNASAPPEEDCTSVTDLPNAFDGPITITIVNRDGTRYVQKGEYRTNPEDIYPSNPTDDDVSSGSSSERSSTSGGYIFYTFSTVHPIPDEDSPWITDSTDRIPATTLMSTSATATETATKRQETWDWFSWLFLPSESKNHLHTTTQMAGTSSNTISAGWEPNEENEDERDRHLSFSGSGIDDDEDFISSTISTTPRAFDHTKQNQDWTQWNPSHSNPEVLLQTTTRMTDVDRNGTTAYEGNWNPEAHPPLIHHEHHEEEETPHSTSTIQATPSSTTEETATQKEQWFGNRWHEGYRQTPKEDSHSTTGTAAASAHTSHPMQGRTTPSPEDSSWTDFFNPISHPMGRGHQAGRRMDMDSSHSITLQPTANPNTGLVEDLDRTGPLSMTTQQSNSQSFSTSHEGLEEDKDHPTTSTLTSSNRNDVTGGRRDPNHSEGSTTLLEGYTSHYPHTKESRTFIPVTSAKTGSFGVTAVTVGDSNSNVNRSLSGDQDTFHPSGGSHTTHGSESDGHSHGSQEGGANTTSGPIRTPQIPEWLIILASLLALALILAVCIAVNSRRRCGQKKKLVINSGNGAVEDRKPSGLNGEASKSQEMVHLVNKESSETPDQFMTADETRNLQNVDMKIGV
The assay can be described thus: Co-immunoprecipitation assay of CD44/MMP-9 complex formation in transfected COS-1 cells. Format: cell-based. Conditions: COS-1 cells transfected with CD44 and MMP-9 cDNAs, peptides for 30 minutes. From the text:
(§1) Procedures for Gelatin Substrate Zymography, Immunoblotting, Immunoprecipitation, Transwell Chamber Cell Migration and Phagokinetic Cell Migration Assays
(§2) Basic protocols for these techniques have been described previously (Cao et al., 1996; Dufour et al., 2008).
To further examine the importance of cross-talk between CD44 and MMP-9 in cell migration, an 8-amino acids peptide (SRPQGPFL) (SEQ ID NO: 2) was synthesized to mimic the outermost β-strand of the first blade of the MMP-9 PEX domain (IS4 peptide). As a control, a scrambled peptide with the same amino acids but rearranged in different order (GLSQPRFP) (SEQ ID NO: 35) was synthesized. COS-1 cells transfected with CD44 and MMP-9 cDNAs were treated with IS4 and IS4 scrambled peptides for 30 minutes followed by monitoring complex formations between CD44 and MMP-9 using a co-immunoprecipitation assay.

Another assay addresses T2, MMP-9 homodimer (Homo sapiens, UniProt P14780).
T2 construct: The MMP-9 cDNA containing the open reading frame of MMP-9 was amplified by a PCR approach; by a site-directed mutagenesis approach using wild type MMP-9 as a template; expressed in transfected cells; host or cells: COS-1 monkey kidney epithelial cells
The assay can be described thus: Co-immunoprecipitation assay of MMP-9 homodimer formation in transfected COS-1 cells. Format: cell-based.
Text: as §1, §2
COS-1 cells co-transfected with HA- and Myc-tagged MMP-9 cDNAs were then employed to examine homodimer formation using a co-immunoprecipitation approach. The HA-tagged MMP-9 proteins in the conditioned medium of transfected COS-1 cells were immunoprecipitated with anti-HA antibodies followed by a western blotting probed by anti-Myc antibodies. […] To further confirm this observation, the reciprocal co-immunoprecipitation was performed. Anti-Myc antibodies were employed to precipitate Myc-tagged MMP-9 complexes in the conditioned medium of co-transfected COS-1 cells followed by western blotting using anti-HA antibodies. This reciprocal approach confirms that MMP-9 does form a homodimer in the condition medium of transfected COS-1 cells.
(§3) One approach to blunt MMP-9 induced cell migration might be to target the herein discovered homodimer formation, which is a prerequisite for MMP-9-induced cell migration. Given the observation that the outermost β-strand of the fourth blade of the MMP-9 PEX domain is required for MMP-9 homodimerization formation, an 8-amino acids peptide (NQVDQVGY) (SEQ ID NO: 1) was synthesized to mimic the outer β-strand of blade IV of MMP-9 PEX domain (IVS4 peptide). As a control, a scrambled peptide with the same amino acids but rearranged in different order (VQYDNGQV) (SEQ ID NO: 51) was designed and synthesized. To test if IVS4 peptide blocked MMP-9 homodimer formation, COS-1 cells transfected with MMP-9 cDNA were treated with peptides for 30 minutes followed by a co-immunoprecipitation assay. […] To examine the potential therapeutic effect of this peptide, a transwell migration assay was performed. […] This IVS4 peptide, however, had no effect on cell migration induced by MT1-MMP, an integral membrane matrix metalloproteinase capable of stimulating cell migration (Cao et al., 2004).

The subject of assay [1] is cell migration induced by MT1-MMP. The assay is described as follows: Transwell migration assay, cell migration induced by MT1-MMP. The format is cell-based.
Text: as §3

A further assay deals with HT1080 cells. The assay can be described thus: Transwell chamber migration assay, HT1080 cells expressing endogenous MMP-9. The format is cell-based, human. The note with it: 100 μM peptide, 6 h at 37° C. Here is the method:
Human fibrosarcoma HT1080 cells are highly invasive and metastatic. […] Since this cell line produces endogenous MMP-9, the inventors sought to test if the MMP-9 IS4 and IVS4 peptides can be used to interfere with function of endogenous MMP-9. To this end, HT1080 cells were employed and cell migratory ability was evaluated using a Transwell chamber migration assay (FIG. 11). The cells were incubated with 100 μM of IS4 peptide (SRPQGPFL) (SEQ ID NO: 2), IS4 scrambled peptide (GLSQPRFP) (SEQ ID NO: 35), IVS4 peptide (NQVDQVGY) (SEQ ID NO: 1), IVS4 scrambled peptide (VQYDNGQV) (SEQ ID NO: 51), and a combination of IS4 and IVS4 peptides for 6 h at 37° C. 1% DMSO was used as a vehicle control. Migrated cells were microscopically counted. Each data point was performed in triplicate and the experiment was repeated three times (*P<0.05). […] While not limiting the invention to any particular mechanism, it is the inventors' view that this is potentially because both inhibitory peptides target the same molecule.

In assay [2] the test system is MMP-9-induced cell migration of transfected COS-1 cells. Conditions: for MMP-9-induced cell migration: transwell chamber migration assay for 6 hours, MMP-9 transfected COS-1 cells.
Method: (P-values reflect comparison with MMP-9 transfected cells: *P<0.05). […] COS-1 cells transfected with an empty vector or MMP-9 cDNAs were examined by a transwell chamber migration assay for 6 hours in the presence of DMSO control, specific and scramble peptides at different concentration. Each data point was performed in triplicate and the experiments was repeated three times (*P<0.05).
Transfection of plasmid DNA in COS-1 cells was achieved using polyethylenimine (Polysciences) or Transfectin™ reagents (Bio-Rad) and the transfected cells were incubated for 48 h at 37° C. followed by biochemical and biological assays.
Assay [3] concerns MMP9/PEXMMP-2/Myc transfected COS-1 cells. The assay can be described thus: Transwell migration assay, COS-1 cells transfected with MMP9/PEXMMP-2/Myc. Format: cell-based, monkey. Conditions: co-expression of TIMP. The source says:
FIG. 3. TIMP-1 interferes with MMP-9 homodimerization. (A) TIMP-1, but not TIMP-2 interferes with MMP-9 dimerization in transfected COS-1 cells examined by a co-immunoprecipitation assay for conditioned medium and cell lysates (upper and middle panels), and immunoblotting for α/β tubulin (lower panel, loading control). (B) TIMP-1 co-precipitated with MMP-9 in both the lysate and the conditioned medium of transfected COS-1 cells examined by a co-immunoprecipitation assay. (C) MMP-9 chimera substituting the PEX domain with the corresponding MMP-2 interacts with TIMP-2 in transfected COS-1 cells, but not wild type MMP-9. (D) COS-1 cells transfected with corresponding cDNAs were subjected to a transwell migration assay. Three triplicated repeats were performed for each transfection. *P<0.05.
The role of TIMP-1 in interfering with MMP-9 homodimer formation remains controversial (Goldberg et al., 1992; Olson et al., 2000). This discrepancy led us to reevaluate the specific interference of TIMP-1 on proMMP-9 homodimer formation using the biochemical approach described above. […]

T2 sequence (P14780 20-707 limits assumed): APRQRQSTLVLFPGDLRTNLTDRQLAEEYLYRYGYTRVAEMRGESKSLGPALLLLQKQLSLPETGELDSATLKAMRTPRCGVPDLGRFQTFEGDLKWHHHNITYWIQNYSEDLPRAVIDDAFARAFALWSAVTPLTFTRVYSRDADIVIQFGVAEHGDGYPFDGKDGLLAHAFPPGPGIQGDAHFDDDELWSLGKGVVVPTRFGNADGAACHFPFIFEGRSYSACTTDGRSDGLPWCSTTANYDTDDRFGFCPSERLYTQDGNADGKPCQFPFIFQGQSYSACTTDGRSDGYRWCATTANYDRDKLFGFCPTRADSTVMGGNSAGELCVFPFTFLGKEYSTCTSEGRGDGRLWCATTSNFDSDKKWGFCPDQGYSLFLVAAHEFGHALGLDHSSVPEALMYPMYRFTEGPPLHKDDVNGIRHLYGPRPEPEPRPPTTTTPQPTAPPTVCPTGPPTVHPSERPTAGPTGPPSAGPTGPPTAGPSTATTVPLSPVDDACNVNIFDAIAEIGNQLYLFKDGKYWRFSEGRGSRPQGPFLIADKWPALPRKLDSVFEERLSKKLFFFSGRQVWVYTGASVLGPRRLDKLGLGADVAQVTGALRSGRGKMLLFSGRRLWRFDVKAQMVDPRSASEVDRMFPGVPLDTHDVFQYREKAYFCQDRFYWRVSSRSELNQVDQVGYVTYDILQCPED

For “GLSQPRFP [IS4 scrambled peptide, control scrambled peptide with the same amino acids as IS4 rearranged in different order, reference compound]”, the CD44/MMP-9 heterodimer formation result with CD44/MMP-9 heterodimer is on record as “minimal effect”.
In general, IC50 refers to the midpoint of a concentration-inhibition curve. For NQVDQVGY [IVS4 peptide, NQVDQVGY], the MMP-9 homodimer formation entry is recorded as “efficiently blocked” at MMP-9 homodimer (COS-1 cells transfected with MMP-9 cDNA, treated with peptides for 30 minutes, co-immunoprecipitation) and “abrogates” on MMP-9 homodimer (COS-1 cells transfected with MMP-9 cDNA, treated with peptides for 30 minutes, co-immunoprecipitation, listed as IVS4). The “cell migration induced by MT1-MMP” value in assay [1] is reported as “no effect”. Besides, the HT1080 cell migration result with HT1080 cells is “significantly reduced; also recorded: efficiently reduced”. For the same substance, the IC50 in assay [2] worked out at 50 µM. For the same substance, the MMP-9-induced cell migration result in assay [2] is “inhibited MMP-9-induced cell migration in a dose-dependent manner”; in assay [2] (listed as IVS4) it was “efficiently reduced”; in assay [2] (listed as IVS4 peptides), “Dose dependent inhibition”.
Take SRPQGPFL [IS4 peptide, SRPQGPFL]: the CD44/MMP-9 heterodimer formation result on CD44/MMP-9 heterodimer is recorded as “interferes”. Moreover, the HT1080 cell migration result in the assay on HT1080 cells (listed as IS4) is recorded as “significantly reduced; also recorded: efficiently reduced”. Besides, the IC50 in assay [2] is 12 µM. Further, the MMP-9-induced cell migration entry is given as “dose-dependent inhibition” in assay [2], “efficiently reduced” in assay [2] (listed as IS4) and “Dose-dependent inhibition” in assay [2] (listed as IS4 peptides).
In the case of “TIMP-1: tissue inhibitor of metalloproteinases, co-expressed from cDNA in COS-1 cells”, the MMP-9 homodimer formation entry with MMP-9 homodimer (co-expression of TIMP cDNA with proMMP-9/Myc and proMMP-9/HA cDNAs in COS-1 cells, conditioned media and cell lysate) is given as “interferes; also recorded: blocking”. Moreover, the “MMP9/PEXMMP-2/Myc enhancement of COS-1 cell migration” value in assay [3] was “no apparent effect; also recorded: did not significantly inhibit”.
